In patent publication US20260174875A1 (Novo Nordisk A/S, priority 2023, published 2026):
pEC50: −log10 of the molar value. Where two headings read alike, the source gives them in different places. Numbered stars: 1 amine (or outer) side, 2 acyl side, 3 side chain; on linkers, the order of the positions; unused ones are H or OH. Square brackets hold non-standard residues; d marks the D form. Side chains are listed from the residue outwards. * marks the point of attachment. C20 diacid = O=C(O)CCCCCCCCCCCCCCCCCCC(=O)*; C18 diacid = O=C(O)CCCCCCCCCCCCCCCCC(=O)*; C16 diacid = O=C(O)CCCCCCCCCCCCCCC(=O)*; γGlu = O=C(O)[C@H](CCC(=O)[*:2])N[*:1]; AEEA = NCCOCCOCC(=O)O; Aib = CC(C)(N)C(=O)O

Columns and labels:
[1] = biological target: T1, human GIP receptor (hGIPR) (Homo sapiens, UniProt P48546); experiment: GIP receptor assay, method A (CRE-luciferase reporter, BHK cells); assay type: cell-based
T1 construct: expressed in transfected cells
T1 sequence (P48546 22-466): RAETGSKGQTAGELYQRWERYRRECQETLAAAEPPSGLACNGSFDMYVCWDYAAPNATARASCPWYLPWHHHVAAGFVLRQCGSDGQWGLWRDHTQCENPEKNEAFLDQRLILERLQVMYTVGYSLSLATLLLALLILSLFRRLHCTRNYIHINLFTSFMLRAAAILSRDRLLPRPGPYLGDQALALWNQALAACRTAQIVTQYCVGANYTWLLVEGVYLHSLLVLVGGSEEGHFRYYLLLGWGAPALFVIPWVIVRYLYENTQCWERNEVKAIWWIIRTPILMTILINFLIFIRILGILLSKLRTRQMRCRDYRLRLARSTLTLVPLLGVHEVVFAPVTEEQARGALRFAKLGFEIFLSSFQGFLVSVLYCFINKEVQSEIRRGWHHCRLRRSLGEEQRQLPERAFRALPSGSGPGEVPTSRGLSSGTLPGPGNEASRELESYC
In short: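 Receptor activation was read as luciferase luminescence in hGIPR-expressing BHK CRE-Luc cells after 3 h compound exposure at 37 °C. Titrations (10-fold, 7 points, duplicate) ran in buffer containing 1% ovalbumin, with 1% HSA final or without; EC50 in pM fitted by four-parameter logistic model, Hill slope shared.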

[2] = biological target: T2, human amylin receptor (hAMYR3) (Homo sapiens, UniProt O60896+P30988); experiment: Amylin receptor assay, method A (CRE-luciferase reporter, BHK cells); assay type: cell-based
T2 construct: host or cells: BHK cells (Hollex-1 line expressing hCTR(a) and CRE-Luc), further transfected with human RAMP3
T2 sequence (P30988 25-474): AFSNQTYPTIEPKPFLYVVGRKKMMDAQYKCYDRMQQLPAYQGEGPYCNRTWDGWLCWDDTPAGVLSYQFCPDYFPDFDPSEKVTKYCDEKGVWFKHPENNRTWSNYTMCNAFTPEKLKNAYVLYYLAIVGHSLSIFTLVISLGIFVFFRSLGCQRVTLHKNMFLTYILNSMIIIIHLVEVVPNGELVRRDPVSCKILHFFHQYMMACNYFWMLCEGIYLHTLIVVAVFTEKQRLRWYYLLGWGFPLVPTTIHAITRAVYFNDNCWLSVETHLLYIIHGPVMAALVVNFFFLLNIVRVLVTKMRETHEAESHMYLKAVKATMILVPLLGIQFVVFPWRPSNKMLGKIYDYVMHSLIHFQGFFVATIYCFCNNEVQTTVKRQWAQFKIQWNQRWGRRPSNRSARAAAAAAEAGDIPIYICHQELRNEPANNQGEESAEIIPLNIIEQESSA
T2 sequence (O60896 24-148): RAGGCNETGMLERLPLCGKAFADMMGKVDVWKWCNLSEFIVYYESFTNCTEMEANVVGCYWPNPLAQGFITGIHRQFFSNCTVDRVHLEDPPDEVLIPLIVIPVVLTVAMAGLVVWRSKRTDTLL

[3] = Chemical stability assessment in formulation (UPLC-UV-MS purity loss at 37° C.); assay type: physicochemical; settings: 8 mM phosphate buffer pH 7.4, 1 mg/mL, 2 weeks
In short: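 Peptides at target 1 mg/mL in 8 mM phosphate buffer, pH adjusted to 7.4, incubated in capped vials at 37° C. and sampled over 2 weeks, frozen until analysis. Purity followed by UPLC-UV-MS with a 0.1% formic acid water/acetonitrile gradient.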

[4] = hGIPR Potency, 1% HSA, EC50, method A, in the presence of 1% HSA
[5] = method A, absence of HSA, read-out: hGIPR Potency, no HSA, EC50
[6] = hAMYR3 Potency, 1% HSA, EC50, method A, in the presence of 1% HSA
[7] = method A, absence of HSA, read-out: hAMYR3 Potency, no HSA, EC50

| Substance | pEC50 [1, 4] | pEC50 [1, 5] | pEC50 [2, 6] | pEC50 [2, 7] | Purity loss per week at 37° C. [3] [%] |
| --- | --- | --- | --- | --- | --- |
| H[Aib]HGTFTSDYSILLEEQAAREFIEWLLAGGPSK([AEEA-AEEA-γGlu-C18 diacid])GEASQLSTAALGRLSAELHTLATLPRTETGSGSP-NH2 [Compound 63] | 10.20 | 11.80 | 10.15 | 11.54 | 3.7 |
| H[Aib]HGTFTSDYSILLEEQAAREFIEWLLAGGPSSGEASHLSTAALGRLSAK([AEEA-AEEA-γGlu-C18 diacid])LHRLATLPRTETGSGSP-NH2 [Compound 87] | 10.41 | 11.14 | 10.44 | 11.30 |  |
| Y[Aib]EGTFTSDYSILLEEQAAREFIEWLLAGGPSSGEASHLSTAQTQRLSAELHRLK([AEEA-AEEA-γGlu-C18 diacid])TLPRTETGSGSP-NH2 [Compound 80] | 10.69 | 11.40 | 10.21 | 11.49 | 0.8 |
| H[Aib]HGTFTSDYSILLEEQAAREFIEWLLAGGPSK([AEEA-AEEA-γGlu-C16 diacid])GEASELSTAALGRLSAELHRLATLPRTETGSGSP-NH2 [Compound 17] | 10.43 | 11.30 | 10.47 | 11.29 | 4.2 |
| H[Aib]HGTFTSDYSILLEEQAAREFIEWLLAGGPSSGEASHLSTAQTQRLSAK([AEEA-AEEA-γGlu-C18 diacid])LHRLATLPRTETGSGSP-NH2 [Compound 82] | 10.72 | 11.43 | 10.42 | 11.49 |  |
| H[Aib]HGTFTSDYSILLEEQAAREFIEWLLAGGPSK([AEEA-AEEA-γGlu-C18 diacid])GEASQLSTAALGRLSAELHQLATLPRTETGSGSP-NH2 [Compound 64] | 10.00 | 11.69 | 9.96 | 11.72 | 3.3 |
| Y[Aib]EGTFTSDYSILLEEQAAREFIEWLLAGGPSSGAGQAPGQAPGASHLSTAQTQRLSAELHK([AEEA-AEEA-γGlu-C20 diacid])LATLPRTETGSGSP-NH2 [Compound 115] |  |  |  |  | 1.1 |
| Y[Aib]EGTFTSDYSILLEEQAAREFIEWLLAGGPSK([AEEA-AEEA-γGlu-C18 diacid])GGQAPGQAPGEASHLSTAQTQRLSAELHELATLPRTETGSGSP-NH2 [Compound 38] | 9.47 | 11.86 | 9.77 | 11.44 |  |
| Y[Aib]EGTFTSDYSILLEEQAAREFIEWLLAGGPSK([AEEA-AEEA-γGlu-C18 diacid])GEASELSTAALGRLSAELHELATLPRTETGSGSP-NH2 [Compound 26] | 9.25 | 11.76 | 9.46 | 10.93 |  |
| Y[Aib]EGTFTSDYSILLEEQAAREFIEWLLAGGPSSGAGQAPGASHLSTAQTQRLSAELHK([AEEA-AEEA-γGlu-C18 diacid])LATLPRTETGSGSP-NH2 [Compound 97] | 11.08 | 11.64 | 9.88 | 11.55 |  |
| Y[Aib]EGTFTSDYSILLEEQAAREFIEWLLAGGPSSGAPPPSGGGEASHLSTAQTQRLSAK([AEEA-AEEA-γGlu-C18 diacid])LHRLATLPRTETGSGSP-NH2 [Compound 109] | 10.76 | 11.13 | 10.50 | 11.44 |  |
| H[Aib]HGTFTSDYSILLEEQAAREFIEWLLAGGPSRGEASHLSTAQTQRLSAELHK([AEEA-AEEA-γGlu-C18 diacid])LATLPRTETGSGSP-NH2 [Compound 69] | 11.09 | 11.72 | 10.10 | 11.46 |  |
| Y[Aib]EGTFTSDYSILLEEQAAREFIEWLLAGGPSSGAPPPSGGGEASHLSTAQTQRLSAK([AEEA-AEEA-γGlu-C20 diacid])LHRLATLPRTETGSGSP-NH2 [Compound 110] | 10.53 | 11.10 | 10.03 | 11.49 |  |

More lines, in order of rising pEC50 [1, 4], values ahead:

| pEC50 [1, 4] | pEC50 [1, 5] | pEC50 [2, 6] | pEC50 [2, 7] | Purity loss per week at 37° C. [3] [%] | Substance |
| --- | --- | --- | --- | --- | --- |
| 9.31 | 11.37 | 9.78 | 11.24 |  | H[Aib]HGTFTSDYSILLEEQAAREFIEWLLAGGPSK([AEEA-AEEA-γGlu-C20 diacid])GAPPPSGGGEASELSTAALGRLSAELHELATLPRTETGSGSP-NH2 [Compound 16] |
| 9.59 | 11.23 | 10.48 | 11.66 |  | H[Aib]HGTFTSDYSILLEEQAAREFIEWLLAGGPSK([AEEA-AEEA-γGlu-C18 diacid])GAPPPSGGGGASELSTAALGRLSAELHRLATLPRTETGSGSP-NH2 [Compound 14] |
| 9.65 | 11.71 | 9.86 | 11.42 |  | H[Aib]HGTFTSDYSILLEEQAAREFIEWLLAGGPSK([AEEA-AEEA-γGlu-C18 diacid])GEASHLSTAQTARLSAELHELATLPRTETGSGSP-NH2 [Compound 36] |
| 9.89 | 11.73 | 10.02 | 11.51 |  | H[Aib]HGTFTSDYSILLEEQAAREFIEWLLAGGPSK([AEEA-AEEA-γGlu-C18 diacid])GAPPPSGGGEASHLSTAQTARLSAELHQLATLPRTETGSGSP-NH2 [compound 101] |
| 10.23 | 11.77 | 9.68 | 10.89 |  | Y[Aib]EGTFTSDYSILLEEQAAREFIEWLLAGGPSK([AEEA-AEEA-γGlu-C16 diacid])GEASELSTAALGRLSAELHELATLPRTETGSGSP-NH2 [Compound 11] |
| 10.37 | 11.68 | 9.76 | 11.17 |  | Y[Aib]EGTFTSDYSILLEEQAAREFIEWLLAGGPSK([AEEA-AEEA-γGlu-C16 diacid])GAPPPSGGGEASELSTAALGRLSAELHELATLPRTETGSGSP-NH2 [compound 10] |
| 10.51 | 11.19 | 10.40 | 11.51 |  | H[Aib]HGTFTSDYSILLEEQAAREFIEWLLAGGPSSGEASHLSTAALGRLSAELHRLK([AEEA-AEEA-γGlu-C18 diacid])TLPRTETGSGSP-NH2 [Compound 89] |
| 10.92 | 11.74 | 9.64 | 11.59 |  | Y[Aib]EGTFTSDYSILLEEQAAREFIEWLLAGGPSRGEASHLSTAQTQRLSAELHK([AEEA-AEEA-γGlu-C18 diacid])LATLPRTETGSGSP-NH2 [compound 68] |
| 10.99 | 11.52 | 10.47 | 11.65 |  | Y[Aib]EGTFTSDYSILLEEQAAREFIEWLLAGGPSSGAGQAPGQAPGASHLSTAQTQRLSAK([AEEA-AEEA-γGlu-C18 diacid])LHRLATLPRTETGSGSP-NH2 [compound 55] |
| 11.12 | 11.73 | 9.87 | 11.54 |  | Y[Aib]EGTFTSDYSILLEEQAAREFIEWLLAGGPSSGAGQAPGQAPLASHLSTAQTQRLSAELHK([AEEA-AEEA-γGlu-C18 diacid])LATLPRTETGSGSP-NH2 [compound 58] |
| 11.13 | 11.68 | 9.89 | 11.55 |  | Y[Aib]EGTFTSDYSILLEEQAAREFIEWLLAGGPSSGALQAPGQAPLASHLSTAQTQRLSAELHK([AEEA-AEEA-γGlu-C20 diacid])LATLPRTETGSGSP-NH2 [Compound 99] |
| 11.17 | 11.74 | 9.93 | 11.55 |  | Y[Aib]EGTFTSDYSILLEEQAAREFIEWLLAGGPSSGAGQAPGQAPGASHLSTAQTQRLSAELHK([AEEA-AEEA-γGlu-C18 diacid])LATLPRTETGSGSP-NH2 [compound 52] |
